Earlier results in article PMC9890135 (Molecular Cancer Therapeutics, 2022).

Settings: cited from earlier work

In the case of `COc1cc2nccc(Oc3ccc(NC(=O)C4(C(=O)Nc5ccc(F)cc5)CC4)cc3)c2cc1OC` [Cabozantinib, cabozantinib], the plasma half-life is listed as “approximately 99 hours”.
